This is an account of results in patent publication US10710994B2, “Oxadiazole transient receptor potential channel inhibitors” (Genentech, Inc., priority 2018, dated 2020).

Structures can show the parent of a compound that is named as a salt. Where two headings read alike, the source gives them in different places.

The target of the assay is human TRPA1 channel (Homo sapiens (Human), UniProt O75762). Description: hTRPA1 CHO Ca2+ FLIPR Tetra assay: block of cinnamaldehyde induced calcium influx. Type of assay: cell-based. The settings on record: CHO cells expressing TRPA1, Hill coefficient fixed to 1.5. The method, boiled down:
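TRPA1-expressing CHO cells loaded with calcium indicator dye (1 h 37° C, then 15 min room temperature) in HBSS/20 mM HEPES pH 7.4/0.02% BSA. IC50 from fits with fixed Hill coefficient.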

Setting [1] is: read-out: hTRPA1 IC50 10 min, 10 minutes incubation with compound before cinnamaldehyde (about EC80).
[2] abbreviates: read-out: hTRPA1 IC50 90 min, 90 minutes incubation with compound before cinnamaldehyde (about EC80).

Chain of human TRPA1 channel (O75762 whole entry): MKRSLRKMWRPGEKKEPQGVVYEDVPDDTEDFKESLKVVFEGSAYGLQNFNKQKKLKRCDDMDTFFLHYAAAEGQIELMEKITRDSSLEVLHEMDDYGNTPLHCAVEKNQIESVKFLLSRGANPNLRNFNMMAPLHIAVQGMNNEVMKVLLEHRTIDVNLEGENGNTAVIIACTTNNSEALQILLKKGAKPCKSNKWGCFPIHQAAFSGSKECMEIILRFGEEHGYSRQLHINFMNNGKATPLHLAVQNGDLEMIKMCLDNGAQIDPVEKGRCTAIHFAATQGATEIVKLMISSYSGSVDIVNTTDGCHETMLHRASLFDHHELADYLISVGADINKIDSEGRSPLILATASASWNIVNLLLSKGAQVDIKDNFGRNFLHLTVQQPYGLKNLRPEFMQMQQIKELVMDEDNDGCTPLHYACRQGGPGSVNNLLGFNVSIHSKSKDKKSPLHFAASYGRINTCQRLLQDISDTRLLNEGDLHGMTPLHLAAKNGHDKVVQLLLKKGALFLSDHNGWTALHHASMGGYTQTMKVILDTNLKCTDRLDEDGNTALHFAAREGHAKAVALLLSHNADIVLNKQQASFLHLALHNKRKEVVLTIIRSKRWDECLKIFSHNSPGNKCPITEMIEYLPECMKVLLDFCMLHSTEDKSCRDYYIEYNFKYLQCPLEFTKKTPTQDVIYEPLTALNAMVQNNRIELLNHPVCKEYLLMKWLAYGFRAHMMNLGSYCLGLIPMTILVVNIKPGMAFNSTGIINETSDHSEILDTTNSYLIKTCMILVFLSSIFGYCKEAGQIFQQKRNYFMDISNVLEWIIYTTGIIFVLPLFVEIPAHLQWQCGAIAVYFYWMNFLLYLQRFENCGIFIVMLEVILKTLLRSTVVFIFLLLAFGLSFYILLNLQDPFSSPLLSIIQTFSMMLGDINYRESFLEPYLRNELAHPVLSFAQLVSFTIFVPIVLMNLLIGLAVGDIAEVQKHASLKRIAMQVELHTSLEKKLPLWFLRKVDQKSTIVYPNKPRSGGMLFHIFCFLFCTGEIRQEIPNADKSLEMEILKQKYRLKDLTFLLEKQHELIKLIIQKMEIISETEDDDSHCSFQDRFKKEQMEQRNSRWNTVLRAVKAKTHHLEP

For `Cc1c(N)nn2ncn(Cc3nc([C@@H]4CO[C@@H](c5ccc(F)cc5)C4)no3)c(=O)c12` [Example 145, 6-amino-3-((3-((3R,5R)-5-(4-fluorophenyl)tetrahydro-furan-3-yl)-1,2,4-oxadiazol-5-yl)methyl)-5-methylpyrazolo[5,1-f][1,2,4]triazin-4(3H)-one], the IC50 came to 9.28 nM under setting [1] and 46 nM under setting [2].

Take `O=c1c2c(cnn1Cc1nc([C@@H]3CO[C@@H](c4ccc(Cl)cc4)C3)no1)CNCC2` [Example 146, 2-((3-((3R,5R)-5-(4-chlorophenyl)tetrahydro-furan-3-yl)-1,2,4-oxadiazol-5-yl)methyl)-5,6,7,8-tetrahydropyrido[3,4-d] pyridazin-1(2H)-one hydrochloride]: the IC50 amounted to 2600 nM under setting [1] and 97 nM under setting [2].

As to `O=c1c2cccnc2ncn1Cc1nc([C@@H]2CO[C@@H](c3ccc(F)cc3)C2)no1` [Example 147, 3-((3-((3R,5R)-5-(4-fluorophenyl)tetrahydro-furan-3-yl)-1,2,4-oxadiazol-5-yl)methyl)pyrido[2,3-d]pyrimidin-4(3H)-one], the IC50 reads like this: under setting [1], 107 nM; under setting [2], 82 nM.

For `Cc1cnn2ncn(Cc3nc([C@@H]4CO[C@@H](c5ccc(Cl)cn5)C4)no3)c(=O)c12` [Example 148, 3-((3-((3R,5R)-5-(5-chloropyridin-2-yl)tetrahydrofuran-3-yl)-1,2,4-oxadiazol-5-yl)methyl)-5-methylpyrazolo[5,1-f] [1,2,4]triazin-4(3H)-one], the IC50 was found to be 21.3 nM under setting [1] and 14 nM under setting [2].

`Nc1nn2c(C(F)(F)F)ncc2c(=O)n1Cc1nc([C@@H]2CO[C@@H](c3ccc(Cl)cc3)C2)no1` [Example 149, 2-amino-3-((3-((3R,5R)-5-(4-chlorophenyl)tetrahydro-furan-3-yl)-1,2,4-oxadiazol-5-yl)methyl)-7-(trifluoromethyl)imidazo [5,1-f][1,2,4]triazin-4(3H)-one]: the IC50 was found to be 4.48 nM under setting [1] and 2.1 nM under setting [2].

With `Cn1ncc2nc(N)n(Cc3nc([C@@H]4CO[C@@H](c5ccc(Cl)cc5)C4)no3)c(=O)c21` [Example 150, 5-amino-6-((3-((3R,5R)-5-(4-chlorophenyl)tetrahydro-furan-3-yl)-1,2,4-oxadiazol-5-yl)methyl)-1-methyl-1,6-dihydro-7H-pyrazolo[4,3-d] pyrimidin-7-one], the IC50 reads like this: under setting [1], 3.19 nM; under setting [2], 1.7 nM.

As for `Cn1ncc2ncn(Cc3nc([C@@H]4CO[C@@H](c5ccc(Cl)cc5)C4)no3)c(=O)c21` [Example 151, 6-((3-((3R,5R)-5-(4-chlorophenyl)tetrahydro-furan-3-yl)-1,2,4-oxadiazol-5-yl)methyl)-1-methyl-1,6-dihydro-7H-pyrazolo[4,3-d] pyrimidin-7-one], the IC50 under setting [1] was found to be 47 nM and the IC50 under setting [2] is 32 nM.

As for `Nc1nc2cccnc2n1Cc1nc([C@@H]2CO[C@@H](c3ccc(Cl)cc3)C2)no1` [Example 155, 3-[[3-[(3R,5R)-5-(4-chlorophenyl)tetrahydro-furan-3-yl]-1,2,4-oxadiazol-5-yl]methyl]imidazo[4,5-b]pyridin-2-amine], the IC50 was 10.3 nM under setting [1] and 7.5 nM under setting [2].

As a reminder, the IC50 is the concentration at which inhibition is half-maximal.
